Source: patent publication US5202315A, “Cephalosporin compounds” (Lucky, Ltd., priority 1989, dated 1993)
Values after ≈ are worked out from the molar mass of the structure shown.

Assays:
Assay in all cases: Antibacterial activity, MIC
Format in all cases: cell-based
[1] = test system: Bacillus megaterium ATCC 9885; details: Priestia megaterium, ATCC9885; ATCC 9885; agar two-fold dilution, 37° C., 20 hours; read-out: MIC
Procedure: (§1) Also, the in vitro antibacterial activity was determined by the by a two-fold dilution method as described below:
(§2) That is, the two-fold serial dilutions of the compound were made dispersed in Muller-Hinton agar medium. 2 μl of standard test strain which had the 10^7 CFU per ml was inoculated on the medium, and was incubated at 37° C. for 20 hours.

[2] = test system: Escherichia coli ATCC 25922; details: ATCC25922, agar two-fold dilution, 37° C., 20 hours
Procedure: as §1, §2

[3] = test system: Acinetobacter calcoaceticus ATCC 15473; details: ATCC15473, ATCC 15473, agar two-fold dilution, 37° C., 20 hours, read-out: MIC
Procedure: as §1, §2

[4] = test system: Staphylococcus epidermidis ATCC 12228; details: ATCC12228, ATCC 12228, agar two-fold dilution, 37° C., 20 hours, read-out: MIC
Procedure: as §1, §2

[5] = test system: Klebsiella pneumoniae ATCC 10031; details: ATCC10031, ATCC 10031, agar two-fold dilution, 37° C., 20 hours, read-out: MIC
Procedure: as §1, §2

[6] = test system: Enterobacter aerogenes ATCC 29751; details: Klebsiella aerogenes, ATCC29751; ATCC 29751; agar two-fold dilution, 37° C., 20 hours; read-out: MIC
Procedure: as §1, §2

[7] = test system: Providencia rettgeri ATCC 9250; details: ATCC9250, agar two-fold dilution, 37° C., 20 hours
Procedure: as §1, §2

[8] = test system: Salmonella typhimurium ATCC 14028; details: Salmonella enterica; ATCC 14028; agar two-fold dilution, 37° C., 20 hours; read-out: MIC
Procedure: as §1, §2

[9] = test system: Serratia marcescens ATCC 27117; details: ATCC27117, ATCC 27117, agar two-fold dilution, 37° C., 20 hours, read-out: MIC
Procedure: as §1, §2

[10] = test system: Proteus vulgaris ATCC 6059; details: ATCC6059, ATCC 6059, agar two-fold dilution, 37° C., 20 hours, read-out: MIC
Procedure: as §1, §2

[11] = test system: Pseudomonas aeruginosa ATCC 25619; details: ATCC25619, ATCC 25619, agar two-fold dilution, 37° C., 20 hours, read-out: MIC
Procedure: as §1, §2

[12] = test system: Micrococcus luteus ATCC 9341; details: ATCC9341, ATCC 9341, agar two-fold dilution, 37° C., 20 hours, read-out: MIC
Procedure: as §1, §2

[13] = test system: Pseudomonas aeruginosa ATCC 27853; details: ATCC27853, ATCC 27853, agar two-fold dilution, 37° C., 20 hours, read-out: MIC
Procedure: as §1, §2

[14] = test system: Bacillus cereus ATCC 11778; details: ATCC11778, ATCC 11778, agar two-fold dilution, 37° C., 20 hours, read-out: MIC
Procedure: as §1, §2

[15] = test system: Enterobacter cloacae ATCC 27508; details: ATCC27508, ATCC 27508, agar two-fold dilution, 37° C., 20 hours, read-out: MIC
Procedure: as §1, §2

[16] = test system: Citrobacter freundii ATCC 8090; details: ATCC8090, ATCC 8090, agar two-fold dilution, 37° C., 20 hours, read-out: MIC
Procedure: as §1, §2

[17] = test system: Streptococcus faecalis ATCC 29212; details: Enterococcus faecalis, ATCC29212; ATCC 29212; agar two-fold dilution, 37° C., 20 hours; read-out: MIC
Procedure: as §1, §2

[18] = test system: Proteus mirabilis ATCC 25933; details: ATCC25933, ATCC 25933, agar two-fold dilution, 37° C., 20 hours, read-out: MIC
Procedure: as §1, §2

[19] = test system: Staphylococcus aureus ATCC 10537; details: ATCC10537, ATCC 10537, agar two-fold dilution, 37° C., 20 hours, read-out: MIC
Procedure: as §1, §2

[20] = test system: Pseudomonas aeruginosa ATCC 10145; details: ATCC10145, ATCC 10145, agar two-fold dilution, 37° C., 20 hours, read-out: MIC
Procedure: as §1, §2

[21] = test system: Shigella sonnei ATCC 11060; details: ATCC11060, ATCC 11060, agar two-fold dilution, 37° C., 20 hours, read-out: MIC
Procedure: as §1, §2

[22] = test system: Staphylococcus aureus ATCC 6538p; details: ATCC6538P, ATCC 6538p, agar two-fold dilution, 37° C., 20 hours, read-out: MIC
Procedure: as §1, §2

[23] = test system: Morganella morganii ATCC 8076h; details: ATCC8076H, agar two-fold dilution, 37° C., 20 hours
Procedure: as §1, §2

[24] = test system: Shigella flexneri ATCC 11836; details: ATCC11836, agar two-fold dilution, 37° C., 20 hours
Procedure: as §1, §2

[25] = test system: Escherichia coli ATCC 10536; details: ATCC10536, agar two-fold dilution, 37° C., 20 hours
Procedure: as §1, §2

Row | SMILES | MIC [1] | MIC [2] | MIC [3] | MIC [4] | MIC [5] | MIC [6] | MIC [7] | MIC [8] | MIC [9] | MIC [10] | MIC [11] | MIC [12] | MIC [13] | MIC [14] | MIC [15] | MIC [16] | MIC [17] | MIC [18] | MIC [19] | MIC [20] | also measured
1 | CC(C)(O/N=C(\C(=O)NC1C(=O)N2C(C(=O)[O-])=C(CSc3nc(N)cc(N)[n+]3C3CC3)CSC12)c1csc(N)n1)C(=O)O (stereo not shown) [Compound I-48] | 0.5 µg/mL (≈ 0.77 µM) | 0.13 µg/mL (≈ 0.2 µM) | 4 µg/mL (≈ 6.16 µM) | 2 µg/mL (≈ 3.08 µM) | 0.063 µg/mL (≈ 0.097 µM) | 2 µg/mL (≈ 3.08 µM) | ≤ 0.008 µg/mL | 0.5 µg/mL (≈ 0.77 µM) | 0.25 µg/mL (≈ 0.385 µM) | 0.13 µg/mL (≈ 0.2 µM) | 2 µg/mL (≈ 3.08 µM) | 0.5 µg/mL (≈ 0.77 µM) | 2 µg/mL (≈ 3.08 µM) | 64 µg/mL (≈ 98.5 µM) | 0.031 µg/mL (≈ 0.0477 µM) | 0.13 µg/mL (≈ 0.2 µM) | > 128 µg/mL | 0.063 µg/mL (≈ 0.097 µM) | 4 µg/mL (≈ 6.16 µM) | 4 µg/mL (≈ 6.16 µM) | MIC [21]: 0.13 µg/mL (≈ 0.2 µM); MIC [22]: 4 µg/mL (≈ 6.16 µM); MIC [23]: ≤ 0.008 µg/mL; MIC [24]: 0.063 µg/mL (≈ 0.097 µM); MIC [25]: 0.13 µg/mL (≈ 0.2 µM)
2 | CC[n+]1c(N)cc(N)nc1SCC1=C(C(=O)[O-])N2C(=O)C(NC(=O)/C(=N\OC(C)(C)C(=O)O)c3nsc(N)n3)C2SC1 (stereo not shown) [Compound I-27] | 1 µg/mL (≈ 1.57 µM) | 0.13 µg/mL (≈ 0.204 µM) | 8 µg/mL (≈ 12.5 µM) | 4 µg/mL (≈ 6.26 µM) | 0.063 µg/mL (≈ 0.0986 µM) | 2 µg/mL (≈ 3.13 µM) | ≤ 0.008 µg/mL | 0.5 µg/mL (≈ 0.783 µM) | 0.25 µg/mL (≈ 0.391 µM) | 0.13 µg/mL (≈ 0.204 µM) | 2 µg/mL (≈ 3.13 µM) | 0.5 µg/mL (≈ 0.783 µM) | 2 µg/mL (≈ 3.13 µM) | > 128 µg/mL | 0.063 µg/mL (≈ 0.0986 µM) | 0.25 µg/mL (≈ 0.391 µM) | > 128 µg/mL | 0.13 µg/mL (≈ 0.204 µM) | 4 µg/mL (≈ 6.26 µM) | 4 µg/mL (≈ 6.26 µM) | MIC [21]: 0.13 µg/mL (≈ 0.204 µM); MIC [22]: 8 µg/mL (≈ 12.5 µM); MIC [23]: ≤ 0.008 µg/mL; MIC [24]: 0.25 µg/mL (≈ 0.391 µM); MIC [25]: 0.13 µg/mL (≈ 0.204 µM)
3 | C=CC[n+]1c(N)cc(N)nc1SCC1=C(C(=O)[O-])N2C(=O)C(NC(=O)/C(=N\OCC(=O)O)c3csc(N)n3)C2SC1 (stereo not shown) [Compound I-9] | 0.25 µg/mL (≈ 0.402 µM) | 0.031 µg/mL (≈ 0.0499 µM) | 8 µg/mL (≈ 12.9 µM) | 1 µg/mL (≈ 1.61 µM) | 0.031 µg/mL (≈ 0.0499 µM) | 1 µg/mL (≈ 1.61 µM) | ≤ 0.008 µg/mL | 0.13 µg/mL (≈ 0.209 µM) | 0.063 µg/mL (≈ 0.101 µM) | 0.031 µg/mL (≈ 0.0499 µM) | 2 µg/mL (≈ 3.22 µM) | 0.25 µg/mL (≈ 0.402 µM) | 4 µg/mL (≈ 6.43 µM) | 64 µg/mL (≈ 103 µM) | ≤ 0.008 µg/mL | 0.063 µg/mL (≈ 0.101 µM) | > 128 µg/mL | 0.031 µg/mL (≈ 0.0499 µM) | 2 µg/mL (≈ 3.22 µM) | 16 µg/mL (≈ 25.7 µM) | MIC [21]: 0.063 µg/mL (≈ 0.101 µM); MIC [22]: 4 µg/mL (≈ 6.43 µM); MIC [23]: ≤ 0.008 µg/mL; MIC [24]: 0.031 µg/mL (≈ 0.0499 µM); MIC [25]: 0.031 µg/mL (≈ 0.0499 µM)
4 | C=CCO/N=C(\C(=O)NC1C(=O)N2C(C(=O)[O-])=C(CSc3nc(N)cc(N)[n+]3C)CSC12)c1csc(N)n1 (stereo not shown) [Compound I-49] | 0.25 µg/mL (≈ 0.433 µM) | 0.25 µg/mL (≈ 0.433 µM) | 8 µg/mL (≈ 13.8 µM) | 0.13 µg/mL (≈ 0.225 µM) | 0.016 µg/mL (≈ 0.0277 µM) | 1 µg/mL (≈ 1.73 µM) | ≤ 0.008 µg/mL | 1 µg/mL (≈ 1.73 µM) | 0.5 µg/mL (≈ 0.866 µM) | 0.5 µg/mL (≈ 0.866 µM) | 1 µg/mL (≈ 1.73 µM) | 0.031 µg/mL (≈ 0.0537 µM) | 8 µg/mL (≈ 13.8 µM) | 32 µg/mL (≈ 55.4 µM) | 0.031 µg/mL (≈ 0.0537 µM) | 0.25 µg/mL (≈ 0.433 µM) | 16 µg/mL (≈ 27.7 µM) | 0.5 µg/mL (≈ 0.866 µM) | 0.25 µg/mL (≈ 0.433 µM) | 16 µg/mL (≈ 27.7 µM) | MIC [21]: 0.25 µg/mL (≈ 0.433 µM); MIC [22]: 0.25 µg/mL (≈ 0.433 µM); MIC [23]: ≤ 0.008 µg/mL; MIC [24]: 0.063 µg/mL (≈ 0.109 µM); MIC [25]: 0.25 µg/mL (≈ 0.433 µM)
